# According to patent US7070983B2, “Mutant Pseudomonas putida strains and methods of use thereof” (priority 2003, dated 2006):
# Experiments:
# [1] = tested on: P. putida strain no. 12 (gen); experiment: Resistance level to antibiotic on LB agar; assay type: cell-based, Pseudomonas putida; details: 1 days on LB agar
# Source text: (§1) Spontaneous streptomycin-resistant (Str), gentamicin-resistant (Gen) or rifampicin-resistant (Rif) mutants were obtained from colonies that grew within 3 days after wild-type cells were spread on LB agar containing various concentrations of antibiotic.
# [2] = tested on: P. putida strain no. 13 (gen); experiment: Resistance level to antibiotic on LB agar; assay type: cell-based, Pseudomonas putida; details: 1 days on LB agar
# Source text: as §1
# [3] = tested on: P. putida strain no. 11 (gen); experiment: Resistance level to antibiotic on LB agar; assay type: cell-based, Pseudomonas putida; details: 1 days on LB agar
# Source text: as §1
# parental strain KH146-2 = experiment: Antibiotic growth suppression on LB agar; assay type: cell-based, Pseudomonas putida
# Source text: as §1
# We first isolated a number of spontaneous streptomycin-resistant (Str), gentamicin-resistant (Gen) and rifampicin-resistant (Rif) mutants of P. putida KH146-2. These mutants appeared at a frequency of 10^−5–10^−6 when KH146-2 cells were spread on LB agar containing various amounts of antibiotics. […] Forty mutants resistant to each antibiotic were randomly selected and examined for tolerance to 4-hydroxybenzoic acid (4HBA). 4HBA-tolerant strains, which could grow in the presence of 1% 4HBA, were detected among these antibiotic resistant mutants at a high frequency of 3 to 15% (Table 1). The highest frequency (15%) was detected in the mutants selected with 1000 μg ml^−1 of streptomycin. These 4HBA-tolerant isolates all grew as well as the parent strain on LB agar.
# [4] = tested on: Str Gen double mutant no. 55; experiment: Uptake of [14C]4HBA; assay type: cell-based, Pseudomonas putida; details: [14C]4HBA at 100 μM, FIG. 3
# Method: (§2) The method described by Thanassi et al. ((1995) J Bacteriol 177:998–1007) was used with some modifications. The bacteria were grown to mid-log phase in HBM medium containing 0.3% 4HBA, washed and resuspended in 0.3% succinate-HBM medium to give OD660=0.7. A 5 ml-aliquot of the bacterial suspension in a 100 ml flask was incubated in a shaker bath. A 0.5 μCi [carboxyl-^14C]4HBA (55 mCi mmol^−1, ARC.) with unlabelled 4HBA at increasing concentrations, were added to the 5 ml bacterial suspension and incubation was continued. At the indicated time, a 0.5 ml aliquot of sample was removed and filtered using a nitrocellulose filter (0.45 μm pore size, Millipore Corp, Bedford, Mass.) which had previously been washed with 2 ml of HBM medium containing 5 mM 4HBA. The sample was applied with a Pipetman, followed by immediate washing with 3 ml of 5 mM 4HBA-HBM medium. The membrane filter was dried, and transferred to a scintillation vial containing Brey's solution, and radioactivity was measured in scintillation spectrometer. From the rate of uptake and the concentration of 4HBA, apparent Km was determined by reciprocal plotting as described by Beman et al ((1983) J Bacteriol 156:1107–1117).
# (§3) Therefore, we first grew cells to mid-log phase in HBM medium containing 0.3% 4HBA and succinate, washed, and resuspended in HBM medium containing only succinate. […]
# [5] = tested on: strain no. 3 harbouring a plasmid without rpsL; experiment: Complementation experiment, 4HBA-tolerance; assay type: cell-based, Pseudomonas putida
# Source text: (§4) To clone the rpsL gene, a 0.9-kb DNA region covering whole rpsL was amplified from the chromosomal DNA of P. putida KH146-2 using KDO DNA polymerase (Toyobo Biochemicals, Osaka). Oligonucleotide primers were designed according to the rpoC-rpsL-rpsG sequence of P. putida KT2440 (www.tigr.org); 5′-[…]-3′ (SEQ ID NO:7—nucleotides [nt]−368 to −341 upstream of rpsL) and 5′-[…]-3′ (SEQ ID NO:8—complementary to nt 107 to 135 downstream of rpsL). The amplified DNA fragments were cloned into plasmid pUC118 (Vieira and Messing, (1987) Methods Enzymol 153: 3–11) to confirm the sequence, then excised from the plasmids as a BamHI-SphI fragment using the restriction sites in the multi-cloning sequence of the vector and inserted between the BglII and SphI sites of the E. coli-Pseudomonas shuttle vector pNIT6010 carrying tet^R, a derivative of pNIT6011 (Nishijyo et al. (2001) Mol Microbiol 40:917–931). The resultant plasmid pYI433, as well as vector control pNIT6010, was introduced into the Str mutant no. 3 (str-1) by conjugation using E. coli HB101/pRK2013 as the helper (Comai et al. (1983) Plasmid 10:21–30). Fifty μg ml^−1 of tetracycline was used for selection of transformants.
# (§5) […]
# [6] = tested on: strain no. 3 carrying plasmid pYI433 containing the wild-type rpsL gene; experiment: Complementation experiment, 4HBA-tolerance; assay type: cell-based, Pseudomonas putida; details: strain no. 3 with plasmid containing the rpsL gene
# Source text: as §4, §5
# [7] = tested on: P. putida strain no. 12 (Gen mutant); experiment: Tolerance test (MIC) on agar plates; assay type: cell-based, Pseudomonas putida
# Method: (§6) Pseudomonas putida KH146-2 was originally isolated from soil for the capability of growing in the presence of 4-hydroxybenzoate (Chen et al., ((1998) Res Communs Biochem and Cell & Mol Biol 2: 253–274)). HBM medium consists of 50 mM sodium potassium phosphate buffer (pH6.8), 0.1% (NH4)2SO4 and Hutner's base. Hutner's base cotained (per liter) nitrilotriacetic acid, 200 mg; CaCl2.2H2O, 67 mg; (NH4)6Mo7O24.4H2O, 185 μg; MgSO4, 289 mg; EDTA, 2.5 mg; ZnSO4.7H2O, 11 mg; FeSO4.7H2O, 7 mg; MnSO4.H2O, 1.5 mg; CuSO4.5H2O, 390 μg; Co(NO3)2.6H2O, 250 μg, and Na2B4O7.10H2O, 180 μg. LB medium contains 1% tryptone, 0.5% yeast extract, and 1% NaCl (adjusted pH 6.8). LBH medium contains 1% tryptone and 0.5% yeast extract in HBM medium. The bacteria were grown at 30° C. in a shaker at 200 rpm. For tolerance tests, HBM or LBH agar plates containing serially increasing concentrations of an organic chemical were employed. Routinely, 20 to 40 bacterial strains were spot-transplanted with the aid of tooth pick on an agar plate, followed by incubation at 30° C. for 3 days.
# [8] = tested on: P. putida strain no. 9 (Str mutant); experiment: Tolerance test (MIC) on agar plates; assay type: cell-based, Pseudomonas putida
# Method: as §6
# [9] = tested on: P. putida strain no. 17 (Rif mutant); experiment: Tolerance test (MIC) on agar plates; assay type: cell-based, Pseudomonas putida
# Method: as §6
# [10] = tested on: P. putida strain no. 14 (Rif mutant); experiment: Tolerance test (MIC) on agar plates; assay type: cell-based, Pseudomonas putida
# Method: as §6
# [11] = tested on: P. putida strain no. 15 (Rif mutant); experiment: Tolerance test (MIC) on agar plates; assay type: cell-based, Pseudomonas putida
# Method: as §6
# [12] = tested on: P. putida strain no. 20 (Rif mutant); experiment: Tolerance test (MIC) on agar plates; assay type: cell-based, Pseudomonas putida; details: LBH medium
# Method: as §6
# [13] = tested on: P. putida strain no. 18 (Rif mutant); experiment: Tolerance test (MIC) on agar plates; assay type: cell-based, Pseudomonas putida; details: LBH medium
# Method: as §6
# [14] = tested on: P. putida strain no. 3 (Str mutant); experiment: Tolerance test (MIC) on agar plates; assay type: cell-based, Pseudomonas putida
# Method: as §6
# [15] = tested on: 4HBA-tolerant Str, Gen and Rif mutants of P. putida KH146-2; assay type: cell-based, Pseudomonas putida; details: the mutants; 4HBA as the sole carbon source
# Method: as §6
# Using several strains randomly chosen as representatives of 4HBA-tolerant mutants, we examined the tolerance level to various organic compounds. […] Tolerance levels to other organic compounds were also examined.
# [16] = tested on: Strain no. 55 (Str Gen double mutant); experiment: 4HBA tolerance after growth on LB without 4HBA; assay type: cell-based, Pseudomonas putida; details: strains grown once on LB medium without 4HBA
# Rif mutant no. 17 = details: read-out: apparent Km of 4HBA uptake, 50 to 500 μM 4HBA
# Method: as §2
# (§7) Therefore, we first grew cells to mid-log phase in HBM medium containing 0.3% 4HBA and succinate, washed, and resuspended in HBM medium containing only succinate. [^14C]4HBA was then added with unlabeled 4HBA at various (50 to 500 μM) concentrations.
# Str mutant no. 3 = details: read-out: apparent Km of 4HBA uptake, 50 to 500 μM 4HBA
# Method: as §2, §7
# wild-type KH146-2 = details: read-out: apparent Km of 4HBA uptake; wild-type strain; 50 to 500 μM 4HBA
# Method: as §2, §7
# [17] = tested on: wild-type and mutant strains; experiment: Determination of protein synthesis ([14C]leucine incorporation); assay type: cell-based, Pseudomonas putida; details: absence or presence (0.6 or 1.2%) of 4HBA; data not shown
# Str and Rif mutants = assay type: cell-based, Pseudomonas putida
# Method: as §2, §3
# [18] = tested on: P. putida wild-type KH146-2; assay type: cell-based, Pseudomonas putida; details: LBH medium, 30° C., 3 days
# Method: as §6
# [19] = tested on: 4HBA-adapted mutants of wild-type strain KH146-2; experiment: 4HBA tolerance by sequential adaptation; assay type: cell-based, Pseudomonas putida; details: mutants obtained by step by step adaptation
# Method: Wild-type strain KH146-2 was adapted, step by step, to grow in HBM medium containing increasing concentrations (from 0.8% to 5%) of 4HBA. In steps using high concentrations (>3%) of 4HBA, adaptation required a longer term incubation (7˜10 days) for each step. In certain steps, the 4HBA-adapted mutants were isolated using agar plates (containing the adapted concentrations of 4HBA), on which tolerant mutants formed big size colonies.
# [20] = tested on: P. putida strain no. 23 (rif-4); experiment: Resistance level to antibiotic on LB agar; assay type: cell-based, Pseudomonas putida; details: 1 days on LB agar
# Source text: as §1
# [21] = tested on: P. putida strain no. 14 (rif-1); experiment: Resistance level to antibiotic on LB agar; assay type: cell-based, Pseudomonas putida; details: 1 days on LB agar
# Source text: as §1
# [22] = tested on: P. putida strain no. 19 (rif-5); experiment: Resistance level to antibiotic on LB agar; assay type: cell-based, Pseudomonas putida; details: 1 days on LB agar
# Source text: as §1
# [23] = tested on: P. putida strain no. 22 (rif-3); experiment: Resistance level to antibiotic on LB agar; assay type: cell-based, Pseudomonas putida; details: 1 days on LB agar
# Source text: as §1
# [24] = tested on: P. putida strain no. 18 (rif-4); experiment: Resistance level to antibiotic on LB agar; assay type: cell-based, Pseudomonas putida; details: 1 days on LB agar
# Source text: as §1
# [25] = tested on: P. putida strain no. 15 (rif-2); experiment: Resistance level to antibiotic on LB agar; assay type: cell-based, Pseudomonas putida; details: 1 days on LB agar
# Source text: as §1
# [26] = tested on: P. putida strain no. 20 (rif-5); experiment: Resistance level to antibiotic on LB agar; assay type: cell-based, Pseudomonas putida; details: 1 days on LB agar
# Source text: as §1
# [27] = tested on: P. putida strain no. 17 (rif-3); experiment: Resistance level to antibiotic on LB agar; assay type: cell-based, Pseudomonas putida; details: 1 days on LB agar
# Source text: as §1
# [28] = tested on: P. putida strain no. 21 (rif-3); experiment: Resistance level to antibiotic on LB agar; assay type: cell-based, Pseudomonas putida; details: 1 days on LB agar
# Source text: as §1
# [29] = tested on: P. putida strain no. 24 (rif-4); experiment: Resistance level to antibiotic on LB agar; assay type: cell-based, Pseudomonas putida; details: 1 days on LB agar
# Source text: as §1
# [30] = HBM medium, 4HBA as a sole carbon source
compound,measurement,setting,value
gentamicin,Resistance level to antibiotic,[1],50 (GEN) μg ml^−1
same,Resistance level to antibiotic,[2],50 (GEN) μg ml^−1
same,Resistance level to antibiotic,[3],50 (GEN) μg ml^−1
same,Concentration completely suppressing growth,parental strain KH146-2,12 µg/mL
"O=C(O)c1ccc(O)cc1 [4HBA, 4-hydroxybenzoate]",uptake of 4HBA,[4],reduced uptake
same,4HBA-tolerance,[5],1.6%
same,4HBA-tolerance,[6],1%
same,Tolerance (MIC),[7]; [30],(1.6 ± 0.2) %
same,Tolerance (MIC),[7]; LBH medium,1.9 ± 0.3%
same,Tolerance (MIC),[8]; [30],(1.3 ± 0.2) %
same,Tolerance (MIC),[8]; LBH medium,1.6 ± 0.2%
same,Tolerance (MIC),[9]; [30],(1.3 ± 0.1) %
same,Tolerance (MIC),[9]; LBH medium,1.8 ± 0.2%
same,Tolerance (MIC),[10]; [30],(1.4 ± 0.2) %
same,Tolerance (MIC),[10]; LBH medium,1.8 ± 0.2%
same,Tolerance (MIC),[11]; [30],(1.2 ± 0.2) %
same,Tolerance (MIC),[11]; LBH medium,1.8 ± 0.2%
same,Tolerance (MIC),[12],1.9 ± 0.1%
same,Tolerance (MIC),[13],2.0 ± 0.2%
same,Tolerance (MIC),[14]; [30],(1.7 ± 0.1) %
same,Tolerance (MIC),[14]; LBH medium,1.9 ± 0.1%
same,minimum inhibitory concentration (MIC),[15],1.7%
same,Tolerance to 4HBA,[16]; 3% 4HBA,still showed a tolerance
same,Growth on 4HBA-containing medium,[16]; 5% 4HBA,no longer grew
same,Km,Rif mutant no. 17,620 µM
same,Km,Str mutant no. 3,470 µM
same,Km,wild-type KH146-2,240 µM
same,"degree of suppression of protein synthesis, wild-type vs mutant strains",[17],no difference
same,Km values greater than wild-type,Str and Rif mutants; Str and Rif mutants vs wild-type,2 to 3 fold
same,"apparent uptake by the membrane transport system, reduction compared to wild-type",Str and Rif mutants; the mutants vs wild-type strain,2 to 3 fold
same,Tolerance (MIC),[18],1.4 ± 0.1%
same,4HBA concentration tolerated,[19],up to 5%
CO[C@H]1/C=C/O[C@@]2(C)Oc3c(C)c(O)c4c(O)c(c(/C=N/N5CCN(C)CC5)c(O)c4c3C2=O)NC(=O)/C(C)=C\C=C\[C@H](C)[C@H](O)[C@@H](C)[C@@H](O)[C@@H](C)[C@H](OC(C)=O)[C@@H]1C [rifampicin],Resistance level to antibiotic,[20],500 (RIF) μg ml^−1
same,Resistance level to antibiotic,[21],>500 (RIF) μg ml^−1
same,Resistance level to antibiotic,[22],500 (RIF) μg ml^−1
same,Resistance level to antibiotic,[23],500 (RIF) μg ml^−1
same,Resistance level to antibiotic,[24],500 (RIF) μg ml^−1
same,Resistance level to antibiotic,[25],>500 (RIF) μg ml^−1
same,Resistance level to antibiotic,[26],500 (RIF) μg ml^−1
same,Resistance level to antibiotic,[27],500 (RIF) μg ml^−1
same,Resistance level to antibiotic,[28],500 (RIF) μg ml^−1
same,Resistance level to antibiotic,[29],500 (RIF) μg ml^−1
same,Concentration completely suppressing growth,parental strain KH146-2,10 µg/mL
